Measurements reported in the kinase profiling compilation of Christmann-Franck et al. (2016).

Experiments:
Test in all cases: KINOMEscan competition binding
Conditions in all cases: compound 10.0 µM
MAPK15 (human) = MAPK15 (human) (UniProt Q8TD08)
CSNK1D (human) = CSNK1D (human) (UniProt P48730)
STK16 (human) = STK16 (human) (UniProt O75716)
EPHA5 (human) = EPHA5 (human) (UniProt P54756)
TBK1 (human) = TBK1 (human) (UniProt Q9UHD2)
PRKACB (human) = PRKACB (human) (UniProt P22694)
ACVRL1 (human) = ACVRL1 (human) (UniProt P37023)
[1] = tested on: KIT (human), P10721 [D816V]
[2] = tested on: ABL1 (human), P00519 [F317L]
CAMK4 (human) = CAMK4 (human) (UniProt Q16566)
CSNK1G3 (human) = CSNK1G3 (human) (UniProt Q9Y6M4)
Sequence of CSNK1G3 (human) (Q9Y6M4 whole entry, looked up): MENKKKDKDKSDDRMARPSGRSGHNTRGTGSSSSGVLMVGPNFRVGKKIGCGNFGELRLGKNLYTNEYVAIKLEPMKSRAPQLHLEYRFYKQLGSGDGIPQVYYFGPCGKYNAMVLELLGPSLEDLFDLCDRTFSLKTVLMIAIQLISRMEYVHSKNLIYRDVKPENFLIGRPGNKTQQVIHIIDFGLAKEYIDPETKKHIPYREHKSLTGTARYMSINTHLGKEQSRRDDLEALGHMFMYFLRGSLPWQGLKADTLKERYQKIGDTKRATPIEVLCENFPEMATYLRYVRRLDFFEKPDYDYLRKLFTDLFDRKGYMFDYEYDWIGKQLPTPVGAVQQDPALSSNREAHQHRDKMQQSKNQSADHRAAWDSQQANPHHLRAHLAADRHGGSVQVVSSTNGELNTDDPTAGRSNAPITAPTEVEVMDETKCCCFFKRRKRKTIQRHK

FES (human) = FES (human) (UniProt P07332)
Sequence of FES (human) (P07332 whole entry, looked up): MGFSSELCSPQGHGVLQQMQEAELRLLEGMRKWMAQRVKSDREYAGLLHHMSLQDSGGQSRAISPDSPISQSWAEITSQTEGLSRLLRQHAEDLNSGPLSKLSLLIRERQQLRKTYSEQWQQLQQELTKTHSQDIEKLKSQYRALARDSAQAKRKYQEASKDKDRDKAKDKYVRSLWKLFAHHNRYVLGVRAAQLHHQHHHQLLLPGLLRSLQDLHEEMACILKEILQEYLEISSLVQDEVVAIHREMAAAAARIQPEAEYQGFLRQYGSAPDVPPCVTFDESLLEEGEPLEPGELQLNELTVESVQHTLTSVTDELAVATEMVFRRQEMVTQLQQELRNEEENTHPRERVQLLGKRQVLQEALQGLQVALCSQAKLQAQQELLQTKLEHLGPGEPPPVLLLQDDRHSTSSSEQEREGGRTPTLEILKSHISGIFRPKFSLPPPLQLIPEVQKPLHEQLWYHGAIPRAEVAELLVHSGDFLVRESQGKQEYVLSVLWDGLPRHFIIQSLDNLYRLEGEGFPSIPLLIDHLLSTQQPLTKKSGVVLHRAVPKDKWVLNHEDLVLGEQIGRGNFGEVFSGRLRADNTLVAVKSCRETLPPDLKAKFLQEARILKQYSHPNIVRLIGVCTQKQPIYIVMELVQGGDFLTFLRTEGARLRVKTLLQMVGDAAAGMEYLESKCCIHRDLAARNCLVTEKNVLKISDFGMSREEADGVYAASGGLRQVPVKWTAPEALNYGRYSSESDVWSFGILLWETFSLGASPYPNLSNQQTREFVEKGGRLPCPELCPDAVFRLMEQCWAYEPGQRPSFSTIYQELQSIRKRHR

EPHA8 (human) = EPHA8 (human) (UniProt P29322)
MYO3A (human) = MYO3A (human) (UniProt Q8NEV4)
Sequence of MYO3A (human) (Q8NEV4 whole entry, looked up): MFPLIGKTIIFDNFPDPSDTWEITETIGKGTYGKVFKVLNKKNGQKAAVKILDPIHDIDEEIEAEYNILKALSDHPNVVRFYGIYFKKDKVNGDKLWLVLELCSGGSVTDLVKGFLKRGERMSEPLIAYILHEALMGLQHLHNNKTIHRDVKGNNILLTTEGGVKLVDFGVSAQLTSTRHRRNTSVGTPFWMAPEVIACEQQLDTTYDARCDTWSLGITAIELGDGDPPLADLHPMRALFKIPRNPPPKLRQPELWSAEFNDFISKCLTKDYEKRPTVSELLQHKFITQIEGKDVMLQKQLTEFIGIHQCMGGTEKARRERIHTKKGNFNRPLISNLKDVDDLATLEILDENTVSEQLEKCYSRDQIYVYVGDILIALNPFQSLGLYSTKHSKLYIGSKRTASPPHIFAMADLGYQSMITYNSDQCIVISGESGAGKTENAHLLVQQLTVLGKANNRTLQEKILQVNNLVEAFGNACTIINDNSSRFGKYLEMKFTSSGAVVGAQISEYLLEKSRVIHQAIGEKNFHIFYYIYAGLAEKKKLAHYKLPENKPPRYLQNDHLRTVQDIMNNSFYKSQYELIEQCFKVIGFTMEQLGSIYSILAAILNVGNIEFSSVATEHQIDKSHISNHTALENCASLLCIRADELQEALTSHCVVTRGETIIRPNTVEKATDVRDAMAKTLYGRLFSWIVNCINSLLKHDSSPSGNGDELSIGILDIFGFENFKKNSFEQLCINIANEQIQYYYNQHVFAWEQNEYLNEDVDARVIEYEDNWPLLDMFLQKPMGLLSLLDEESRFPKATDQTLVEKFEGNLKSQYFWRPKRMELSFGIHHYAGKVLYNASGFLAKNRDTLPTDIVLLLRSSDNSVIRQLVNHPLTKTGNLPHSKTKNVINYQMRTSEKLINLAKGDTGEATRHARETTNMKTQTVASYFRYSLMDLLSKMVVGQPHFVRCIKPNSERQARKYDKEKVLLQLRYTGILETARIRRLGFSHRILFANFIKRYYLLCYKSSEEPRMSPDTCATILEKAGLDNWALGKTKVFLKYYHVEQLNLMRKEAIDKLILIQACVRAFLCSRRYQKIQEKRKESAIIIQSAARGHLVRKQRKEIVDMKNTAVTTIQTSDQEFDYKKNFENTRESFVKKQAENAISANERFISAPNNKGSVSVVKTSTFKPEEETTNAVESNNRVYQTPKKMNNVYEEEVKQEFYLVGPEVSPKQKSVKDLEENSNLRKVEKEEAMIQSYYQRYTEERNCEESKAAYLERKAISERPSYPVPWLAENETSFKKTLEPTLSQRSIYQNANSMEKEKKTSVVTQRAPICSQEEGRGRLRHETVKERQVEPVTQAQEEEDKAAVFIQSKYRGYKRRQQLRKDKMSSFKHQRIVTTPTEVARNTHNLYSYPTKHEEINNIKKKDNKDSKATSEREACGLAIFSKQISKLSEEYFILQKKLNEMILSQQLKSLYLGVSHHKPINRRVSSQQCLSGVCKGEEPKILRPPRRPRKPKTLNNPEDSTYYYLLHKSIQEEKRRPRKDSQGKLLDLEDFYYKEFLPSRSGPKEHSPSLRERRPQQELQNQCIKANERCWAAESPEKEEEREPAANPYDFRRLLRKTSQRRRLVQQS

CLK2 (human) = CLK2 (human) (UniProt P49760)
Sequence of CLK2 (human) (P49760 whole entry, looked up): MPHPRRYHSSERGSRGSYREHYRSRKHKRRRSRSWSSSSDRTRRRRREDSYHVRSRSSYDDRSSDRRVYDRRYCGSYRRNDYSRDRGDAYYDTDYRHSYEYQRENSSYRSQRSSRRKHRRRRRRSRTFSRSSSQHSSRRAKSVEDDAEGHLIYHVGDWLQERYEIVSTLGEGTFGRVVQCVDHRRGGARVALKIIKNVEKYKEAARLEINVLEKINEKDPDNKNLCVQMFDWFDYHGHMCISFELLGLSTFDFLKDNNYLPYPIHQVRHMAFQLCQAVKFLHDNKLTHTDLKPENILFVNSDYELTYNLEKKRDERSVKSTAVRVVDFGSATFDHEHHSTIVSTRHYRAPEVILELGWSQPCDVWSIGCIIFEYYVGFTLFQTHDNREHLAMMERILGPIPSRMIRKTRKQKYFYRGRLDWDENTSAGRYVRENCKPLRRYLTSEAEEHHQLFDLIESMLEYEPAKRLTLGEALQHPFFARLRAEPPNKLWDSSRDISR

RIPK1 (human) = RIPK1 (human) (UniProt Q13546)
AKT1 (human) = AKT1 (human) (UniProt P31749)
MAPK14 (human) = MAPK14 (human) (UniProt Q16539)
PIM1 (human) = PIM1 (human) (UniProt P11309)
[3] = tested on: PIK3CA (human), P42336 [Q546K]
EPHB2 (human) = EPHB2 (human) (UniProt P29323)
PAK6 (human) = PAK6 (human) (UniProt Q9NQU5)
CDK5 (human) = CDK5 (human) (UniProt Q00535)
Sequence of CDK5 (human) (Q00535 whole entry, looked up): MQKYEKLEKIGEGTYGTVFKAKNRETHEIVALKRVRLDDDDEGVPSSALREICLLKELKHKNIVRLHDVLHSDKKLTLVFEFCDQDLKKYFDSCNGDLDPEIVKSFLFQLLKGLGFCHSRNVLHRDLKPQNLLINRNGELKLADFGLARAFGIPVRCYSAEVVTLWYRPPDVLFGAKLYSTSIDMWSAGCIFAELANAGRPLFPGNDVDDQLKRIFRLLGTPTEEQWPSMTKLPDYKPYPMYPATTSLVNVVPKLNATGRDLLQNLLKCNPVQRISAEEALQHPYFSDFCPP

NUAK2 (human) = NUAK2 (human) (UniProt Q9H093)
MAP3K7 (human) = MAP3K7 (human) (UniProt O43318)
MAPK7 (human) = MAPK7 (human) (UniProt Q13164)
MLTK (human) = MLTK (human) (UniProt Q9NYL2)
ANKK1 (human) = ANKK1 (human) (UniProt Q8NFD2)
[4] = tested on: PIK3CA (human), P42336 [E545A]
CDK2 (human) = CDK2 (human) (UniProt P24941)
TAOK3 (human) = TAOK3 (human) (UniProt Q9H2K8)
PRKAA2 (human) = PRKAA2 (human) (UniProt P54646)
Sequence of PRKAA2 (human) (P54646 whole entry, looked up): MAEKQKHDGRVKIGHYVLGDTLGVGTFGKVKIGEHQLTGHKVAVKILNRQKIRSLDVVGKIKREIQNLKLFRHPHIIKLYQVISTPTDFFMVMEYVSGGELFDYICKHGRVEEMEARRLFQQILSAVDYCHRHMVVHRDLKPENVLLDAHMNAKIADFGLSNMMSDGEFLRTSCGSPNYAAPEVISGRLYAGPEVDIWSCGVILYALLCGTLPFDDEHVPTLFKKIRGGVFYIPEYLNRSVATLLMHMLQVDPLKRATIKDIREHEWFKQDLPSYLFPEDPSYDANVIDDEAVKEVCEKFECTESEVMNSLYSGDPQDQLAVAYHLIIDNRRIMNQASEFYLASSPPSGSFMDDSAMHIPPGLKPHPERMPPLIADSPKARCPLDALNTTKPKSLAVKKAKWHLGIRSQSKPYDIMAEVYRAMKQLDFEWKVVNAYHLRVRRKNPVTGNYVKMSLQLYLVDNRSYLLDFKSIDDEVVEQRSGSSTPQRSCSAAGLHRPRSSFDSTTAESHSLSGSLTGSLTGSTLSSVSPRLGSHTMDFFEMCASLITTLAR

EPHA6 (human) = EPHA6 (human) (UniProt Q9UF33)
NUAK1 (human) = NUAK1 (human) (UniProt O60285)
MET (human) = MET (human) (UniProt P08581)
FRK (human) = FRK (human) (UniProt P42685)
Sequence of FRK (human) (P42685 whole entry, looked up): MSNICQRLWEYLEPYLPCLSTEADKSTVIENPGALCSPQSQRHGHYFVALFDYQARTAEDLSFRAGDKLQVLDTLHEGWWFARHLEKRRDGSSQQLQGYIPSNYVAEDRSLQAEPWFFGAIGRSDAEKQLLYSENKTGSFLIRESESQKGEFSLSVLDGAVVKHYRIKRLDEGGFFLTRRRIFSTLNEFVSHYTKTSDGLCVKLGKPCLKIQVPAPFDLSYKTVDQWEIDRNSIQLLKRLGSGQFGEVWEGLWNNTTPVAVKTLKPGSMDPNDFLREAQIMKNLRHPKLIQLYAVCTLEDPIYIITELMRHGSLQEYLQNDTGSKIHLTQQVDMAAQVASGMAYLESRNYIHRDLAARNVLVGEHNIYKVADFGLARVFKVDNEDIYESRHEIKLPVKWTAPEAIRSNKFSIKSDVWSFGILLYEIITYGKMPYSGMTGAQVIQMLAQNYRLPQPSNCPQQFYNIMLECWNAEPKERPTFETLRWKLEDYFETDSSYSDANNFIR

NEK7 (human) = NEK7 (human) (UniProt Q8TDX7)
BMX (human) = BMX (human) (UniProt P51813)
CHUK (human) = CHUK (human) (UniProt O15111)
ABL2 (human) = ABL2 (human) (UniProt P42684)
LYN (human) = LYN (human) (UniProt P07948)
IKBKE (human) = IKBKE (human) (UniProt Q14164)

Sequence of STK16 (human) (O75716 whole entry, looked up): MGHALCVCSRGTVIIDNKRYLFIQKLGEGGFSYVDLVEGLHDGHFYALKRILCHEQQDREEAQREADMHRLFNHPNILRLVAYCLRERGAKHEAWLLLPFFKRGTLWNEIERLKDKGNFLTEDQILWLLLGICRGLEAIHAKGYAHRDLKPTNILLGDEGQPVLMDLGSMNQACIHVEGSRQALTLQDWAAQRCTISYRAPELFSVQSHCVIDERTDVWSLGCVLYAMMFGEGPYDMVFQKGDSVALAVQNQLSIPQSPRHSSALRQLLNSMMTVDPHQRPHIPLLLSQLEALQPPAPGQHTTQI

## O=C1Nc2cc(Br)ccc2/C1=C1/Nc2ccccc2/C1=N\O
MAPK15 (human)
  kinase still bound, per cent of control: 29%
CSNK1D (human)
  kinase still bound, per cent of control: 21%
STK16 (human)
  kinase still bound, per cent of control: 0.8%
EPHA5 (human)
  kinase still bound, per cent of control: 30%
TBK1 (human)
  kinase still bound, per cent of control: 32%
PRKACB (human)
  kinase still bound, per cent of control: 100%
ACVRL1 (human)
  kinase still bound, per cent of control: 100%
[1]
  kinase still bound, per cent of control: 2.3%
[2]
  kinase still bound, per cent of control: 5.2%
CAMK4 (human)
  kinase still bound, per cent of control: 100%
CSNK1G3 (human)
  kinase still bound, per cent of control: 81%
FES (human)
  kinase still bound, per cent of control: 100%
EPHA8 (human)
  kinase still bound, per cent of control: 40%
MYO3A (human)
  kinase still bound, per cent of control: 60%
CLK2 (human)
  kinase still bound, per cent of control: 8.2%
RIPK1 (human)
  kinase still bound, per cent of control: 2.4%
AKT1 (human)
  kinase still bound, per cent of control: 100%
MAPK14 (human)
  kinase still bound, per cent of control: 92%
PIM1 (human)
  kinase still bound, per cent of control: 62%
[3]
  kinase still bound, per cent of control: 100%
EPHB2 (human)
  kinase still bound, per cent of control: 77%
PAK6 (human)
  kinase still bound, per cent of control: 24%
CDK5 (human)
  kinase still bound, per cent of control: 9.5%
NUAK2 (human)
  kinase still bound, per cent of control: 39%
MAP3K7 (human)
  kinase still bound, per cent of control: 20%
MAPK7 (human)
  kinase still bound, per cent of control: 100%
MLTK (human)
  kinase still bound, per cent of control: 26%
ANKK1 (human)
  kinase still bound, per cent of control: 4.8%
[4]
  kinase still bound, per cent of control: 100%
CDK2 (human)
  kinase still bound, per cent of control: 14%
TAOK3 (human)
  kinase still bound, per cent of control: 71%
PRKAA2 (human)
  kinase still bound, per cent of control: 4.2%
EPHA6 (human)
  kinase still bound, per cent of control: 34%
NUAK1 (human)
  kinase still bound, per cent of control: 12%
MET (human)
  kinase still bound, per cent of control: 86%
FRK (human)
  kinase still bound, per cent of control: 2.6%
NEK7 (human)
  kinase still bound, per cent of control: 100%
BMX (human)
  kinase still bound, per cent of control: 42%
CHUK (human)
  kinase still bound, per cent of control: 83%
ABL2 (human)
  kinase still bound, per cent of control: 1.2%
LYN (human)
  kinase still bound, per cent of control: 6.2%
IKBKE (human)
  kinase still bound, per cent of control: 29%

## Cn1cc(C2=C(c3ccc(Cl)cc3Cl)C(=O)NC2=O)c2ccccc21
MAPK15 (human)
  kinase still bound, per cent of control: 1.7%
CSNK1D (human)
  kinase still bound, per cent of control: 94%
STK16 (human)
  kinase still bound, per cent of control: 29%
EPHA5 (human)
  kinase still bound, per cent of control: 99%
TBK1 (human)
  kinase still bound, per cent of control: 90%
PRKACB (human)
  kinase still bound, per cent of control: 100%
ACVRL1 (human)
  kinase still bound, per cent of control: 100%
[1]
  kinase still bound, per cent of control: 89%
[2]
  kinase still bound, per cent of control: 100%
CAMK4 (human)
  kinase still bound, per cent of control: 98%
CSNK1G3 (human)
  kinase still bound, per cent of control: 69%
FES (human)
  kinase still bound, per cent of control: 100%
EPHA8 (human)
  kinase still bound, per cent of control: 100%
MYO3A (human)
  kinase still bound, per cent of control: 95%
CLK2 (human)
  kinase still bound, per cent of control: 0.45%
RIPK1 (human)
  kinase still bound, per cent of control: 100%
AKT1 (human)
  kinase still bound, per cent of control: 100%
MAPK14 (human)
  kinase still bound, per cent of control: 72%
PIM1 (human)
  kinase still bound, per cent of control: 22%
[3]
  kinase still bound, per cent of control: 90%
EPHB2 (human)
  kinase still bound, per cent of control: 100%
PAK6 (human)
  kinase still bound, per cent of control: 86%
CDK5 (human)
  kinase still bound, per cent of control: 47%
NUAK2 (human)
  kinase still bound, per cent of control: 100%
MAP3K7 (human)
  kinase still bound, per cent of control: 100%
MAPK7 (human)
  kinase still bound, per cent of control: 79%
MLTK (human)
  kinase still bound, per cent of control: 93%
ANKK1 (human)
  kinase still bound, per cent of control: 86%
[4]
  kinase still bound, per cent of control: 100%
CDK2 (human)
  kinase still bound, per cent of control: 7.4%
TAOK3 (human)
  kinase still bound, per cent of control: 92%
PRKAA2 (human)
  kinase still bound, per cent of control: 52%
EPHA6 (human)
  kinase still bound, per cent of control: 100%
NUAK1 (human)
  kinase still bound, per cent of control: 90%
MET (human)
  kinase still bound, per cent of control: 79%
FRK (human)
  kinase still bound, per cent of control: 100%
NEK7 (human)
  kinase still bound, per cent of control: 89%
BMX (human)
  kinase still bound, per cent of control: 78%
CHUK (human)
  kinase still bound, per cent of control: 84%
ABL2 (human)
  kinase still bound, per cent of control: 93%
LYN (human)
  kinase still bound, per cent of control: 100%
IKBKE (human)
  kinase still bound, per cent of control: 85%
